Patent US20090155209A1, “NOVEL MACROCYCLIC INHIBITORS OF HEPATITIS C VIRUS REPLICATION” (priority 2007, published 2009)
Several values for one entry are separate records, joined by “and”; a condition that tells them apart may be missing. Equal values may be shown once. Read-outs that look alike come from different tables or passages of the source.

Experiments:
[1] = Simulated steady-state plasma and liver profiles: predicted AUC0-24, Cavg, % Time>EC90, Ctrough,liver/EC90; design: species or system human; details: 8 or 12 hour dose interval
Source text: Fitted parameters were used to compute predicted steady-state AUC0-24 and integrated average steady-state concentrations (Cavg) in plasma and in liver. Three hypothetical liver to plasma ratios (LPR) were considered given the variability seen in various animal species: 8 to 1, 30 to 1, and 100 to 1. The LPR seen in rats was approximately 8:1, LPR in dogs was approximately 25-40:1 and LPR in monkeys was approximately 80-125:1.
Using ADAPT 5, simulated plasma profiles were generated using individual subject fitted parameters and two different dosing regimens, 800 mg Q12H and 500 mg Q8H, dosed to steady-state.
By simulating plasma concentration profiles at steady-state, it is possible to predict ITMN-191 concentrations in liver and then index these to viral sensitivity. Summary statistics for the percentage of a dosing interval for which predicted liver concentrations remain above the EC90 (% Time>EC90) and the ratio of predicted trough concentration in the liver to the EC90 (Ctrough, liver/EC90) are provided in Table 12.

HCV = test: EC90 (viral sensitivity); format: cell-based, hepatitis C virus (HCV); details: Hepatitis C virus
[2] = Single ascending dose study, fasted and fed: safety and non-compartmental plasma PK; format: in vivo, healthy volunteers (human); details: for AUC0-inf / Cmax / half-life / Tmax: human, plasma, oral; for Tmax: read-out: Tmax
Method: A single ascending dose (SAD) study of the compound 100 was conducted in healthy volunteers. The compound 100 was administered as monotherapy both with and without food. The safety and pharmacokinetic profile of the single dose of the compound 100 was assessed.
Interim, blinded data were used for Pharmacokinetic (PK) study relating to food effects. With the exception of the 400 mg cohort, eight subjects were studied at each dose (single doses of 100, 200, or 800 mg of the sodium salt of the compound 100, which may be referred to herein as ITMN-191, administered in the fasting state). In the 400 mg cohort, ten subjects received single 400 mg doses of ITMN-191 under both fasted and fed conditions with a 5-day washout period between dosing. In the 100 mg cohort, subjects were sampled within 1 hour before dosing and at 0.5, 1, 1.5, 2, 2.5, 3, 4, 6, 8, 12, 18, 24, 32 and 48 hours after dosing. For subsequent cohorts, subjects were sampled within 1 hour before dosing and at 0.25, 0.5, 1, 1.5, 2, 2.5, 3, 4, 6, 8, 12, 18, 24, and 32 hours after dosing. Nominal (not actual) sampling times were used for the analysis. PK samples were analyzed using liquid chromatography-tandem mass spectrometry (LC/MS/MS with API 4000 mass spectrometer) following solid-phase extraction. The upper and lower limits of quantitation (ULOQ and LLOQ) are 100 and 0.01 ng/mL, respectively.
Pharmacokinetic parameter estimates were calculated using non-compartmental methods (implemented using Microsoft Excel®). Half-lives were determined by visual inspection of the log concentration-time plots to choose the terminal phase (minimum of three detectable observations). Using linear regression of the chosen terminal phase observations, elimination rate constants were calculated as the negative slope of the regression line and half-life as the natural log of 2 divided by the elimination rate constant.
Ten subjects received single 1600 mg doses of ITMN-191 under both fasted and fed conditions with a 5-day washout period between dosing. For each condition, subjects were sampled within 1 hour before dosing and at 0.25, 0.5, 1, 1.5, 2, 2.5, 3, 4, 6, 8, 12, 18, 24, and 32 hours after dosing. Pharmacokinetic parameter estimates were calculated using non-compartmental methods. Half-life (t1/2) was determined by visual inspection of the log concentration-time plots to choose the terminal phase (minimum of three detectable observations). Using linear regression of the chosen terminal phase observations, elimination rate constants were calculated as the negative slope and half-life as the natural log of 2 divided by the elimination rate constant.

Compound: CC(C)(C)OC(=O)N[C@H]1CCCCC/C=C\[C@@H]2C[C@@]2(C(=O)NS(=O)(=O)C2CC2)NC(=O)[C@@H]2C[C@@H](OC(=O)N3Cc4cccc(F)c4C3)CN2C1=O [ITMN-191]
- accumulation associated with multiple doses [1]: negligible
- EC90 (HCV): 14.1 nM and 0.0106 µg/mL
- fold increase of median AUC0-inf and Cmax ([2]; 1600 mg fasted versus 800 mg cohort): 3-4 fold
- dose linearity of pharmacokinetics based on AUC0-inf ([2]; dose range of 100-800 mg): linear
- AUC0-inf ([2]; 100 mg, median, single 100 mg dose, fasting state, N=8, read-out: AUC0-inf): 20.4 ng·h/mL
- Cmax ([2]; 100 mg, median, single 100 mg dose, fasting state, N=8, read-out: Cmax): 14.7 ng/mL
- half-life ([2]; 100 mg, median, single 100 mg dose, fasting state, N=8, read-out: T1/2 (converted)): 1.78 h
- Tmax ([2]; 100 mg, median, single 100 mg dose, fasting state, N=8): 0.75 h
- AUC0-inf ([2]; 200 mg, median, single 200 mg dose, fasting state, N=8, read-out: AUC0-inf): 36.8 ng·h/mL
- Cmax ([2]; 200 mg, median, single 200 mg dose, fasting state, N=8, read-out: Cmax): 30.2 ng/mL
- half-life ([2]; 200 mg, median, single 200 mg dose, fasting state, N=8, read-out: T1/2 (converted)): 1.49 h
- Tmax ([2]; 200 mg, median, single 200 mg dose, fasting state, N=8): 0.75 h
- AUC0-inf ([2]; 400 mg, median, single 400 mg dose (Fasted), N=10, read-out: AUC0-inf): 81 ng·h/mL
- Cmax ([2]; 400 mg, median, single 400 mg dose (Fasted), N=10, read-out: Cmax): 63.8 ng/mL
- half-life ([2]; 400 mg, median, single 400 mg dose (Fasted), N=10, read-out: T1/2 (converted)): 1.53 h
- Tmax ([2]; 400 mg, median, single 400 mg dose (Fasted), N=10): 1 h
- AUC0-inf ([2]; 400 mg, median, single 400 mg dose (Fed), N=10, read-out: AUC0-inf): 113 ng·h/mL
- Cmax ([2]; 400 mg, median, single 400 mg dose (Fed), N=10, read-out: Cmax): 56.6 ng/mL
- half-life ([2]; 400 mg, median, single 400 mg dose (Fed), N=10, read-out: T1/2 (converted)): 1.74 h
- Tmax ([2]; 400 mg, median, single 400 mg dose (Fed), N=10): 2.5 h
- AUC0-inf ([2]; 800 mg, 800 mg cohort, fasting, single dose, read-out: median AUC0-inf): 194 ng·h/mL
- Cmax ([2]; 800 mg, 800 mg cohort, fasting, single dose, read-out: median Cmax): 216 ng/mL
- AUC0-inf ([2]; 800 mg, median, single 800 mg dose, fasting state, N=8, read-out: AUC0-inf): 194 ng·h/mL
- Cmax ([2]; 800 mg, median, single 800 mg dose, fasting state, N=8, read-out: Cmax): 216 ng/mL
- half-life ([2]; 800 mg, median, single 800 mg dose, fasting state, N=8, read-out: T1/2 (converted)): 1.91 h
- Tmax ([2]; 800 mg, median, single 800 mg dose, fasting state, N=8): 0.5 h
- AUC0-inf ([2]; 1600 mg, 1600 mg fasted cohort, single dose, read-out: median AUC0-inf): 737 ng·h/mL
- Cmax ([2]; 1600 mg, 1600 mg fasted cohort, single dose, read-out: median Cmax): 685 ng/mL
- AUC0-inf ([2]; 1600 mg, Geometric Mean of 10 subjects, single 1600 mg dose, Fasted, read-out: AUC0-inf): 667 ng·h/mL
- Cmax ([2]; 1600 mg, Geometric Mean of 10 subjects, single 1600 mg dose, Fasted, read-out: Cmax): 538 ng/mL
- half-life ([2]; 1600 mg, Geometric Mean of 10 subjects, single 1600 mg dose, Fasted, read-out: t½ (converted)): 2.38 h
- AUC0-inf ([2]; 1600 mg, Geometric Mean of 10 subjects, single 1600 mg dose, Fed, read-out: AUC0-inf): 1010 ng·h/mL
- Cmax ([2]; 1600 mg, Geometric Mean of 10 subjects, single 1600 mg dose, Fed, read-out: Cmax): 422 ng/mL
- half-life ([2]; 1600 mg, Geometric Mean of 10 subjects, single 1600 mg dose, Fed, read-out: t½ (converted)): 2.5 h
- AUC0-inf ([2]; 1600 mg, Harmonic Mean of 10 subjects, single 1600 mg dose, Fasted, read-out: AUC0-inf): 639 ng·h/mL
